{"source": "patent US20020173468A1", "about": "“MODIFIED CYTOSTATIC AGENTS” (priority 1996, published 2002)", "key": {"[1]": {"test_system": "SW 480 human colonic tumour cell line", "assay": "Growth inhibition test (MTT) for cytotoxic properties, SW 480", "type": "cell-based", "conditions": "SW 480 cells", "experimental": "(§1) 1. Growth Inhibition Test for the Determination of Cytotoxic Properties\n(§2) They were then trypsinized and taken up in RPMI plus 10% FCS to give a cell count of 50,000 cells/ml. 100 μl of cell suspension/well were added to a 96 microwell plate and incubated for 1 day at 37° C. in a CO2 incubator. A further 100 μl of RPMI medium and 1 μl of DMSO were then added with the test substances. The growth was checked after day 3 and day 6. To do this, 40 μl of MTT solution (3-(4,5-dimethylthiazol-2-yl)-2,5-diphenyl-tetrazolin bromide) were added to each microwell at a starting concentration of 5 mg/ml of H2O. Incubation was carried out at 37° C. for 5 hours in the CO2 incubator. The medium was then aspirated and 100 μl of i-propanol/well were added. After shaking for 30 min with 100 μl of H2O, the extinction was measured at 540 nm using a Titertek Multiskan MCC/340 (flow).\n(§3) The cytotoxic action is indicated in Table 1 as an IC50 value in each case for the SW 480 and HT 29 and B16F10 cell lines: […]"}, "[2]": {"test_system": "HT 29 human colonic tumour cell line", "assay": "Growth inhibition test (MTT) for cytotoxic properties, HT 29", "type": "cell-based", "conditions": "HT 29 cells", "experimental": "as §1, §2, §3"}, "[3]": {"test_system": "B16F10 mouse melanoma cell line", "assay": "Growth inhibition test (MTT) for cytotoxic properties, B16F10", "type": "cell-based", "conditions": "B16F10 cells", "experimental": "as §1, §2, §3"}, "[4]": {"test_system": "mouse bone marrow stem cells", "assay": "Inhibition of the CSF-induced proliferation of mouse bone marrow stem cells (colony formation)", "type": "cell-based", "conditions": "recombinant murine GM-CSF, 7 days", "experimental": "2. Haematopoietic Activity of Conjugates in Comparison with the Basic Active Compound\nBone marrow cells were rinsed from mouse femurs. 10^5 cells were incubated in McCoy 5A medium (0.3% agar) together with recombinant murine GM-CSF (Genzyme; stem cell colony formation) and the substances (10^−4 to 100 μg/ml) at 37° C. and 7% CO2. 7 days later, the colonies ([…]50 cells) and clusters (17-50 cells) were counted."}, "[5]": {"test_system": "large-cell human lung tumour xenograft LXFL 529", "assay": "In-vivo inhibition of tumour growth in the nude mouse model", "set-up": "species or system athymic nude mice (NMRI nu/nu strain)", "conditions": "for Relative tumour volume on day 21: control 1137; for Survival time: individual animals", "description": "3. In-vivo Inhibition of Tumour Growth in the Nude Mouse Model\nFor all in-vivo experiments for investigation of the inhibition of tumour growth, athymic nude mice (NMRI nu/nu strain) were used. The selected large-cell lung carcinoma LXFL 529 was developed by serial passage in nude mice. The human origin of the tumour was confirmed by isoenzymatic and immunohistochemical methods.\nThe tumour was implanted subcutaneously in both flanks of nu/nu nude mice 6 to 8 weeks old. The treatment was started, depending on the doubling time, as soon as the tumours had reached a diameter of 5-7 mm. The mice were assigned to the treatment group and to the control group (5 mice per group with 8-10 assessable tumours) by randomization. The individual tumours of the control group all grew progressively.\nThe size of the tumours was measured in two dimensions by means of a slide gauge. The tumour volume, which correlated well with the cell count, was then used for all evaluations. The volume was calculated according to the formula “length×breadth×breadth/2” ([a×b^2]/2, a and b represent two diameters arranged at right angles).\nThe values of the relative tumour volume (RTV) were calculated for each individual tumour by dividing the tumour size on day X by the tumour size on day 0 (at the time of randomization). The mean values of the RTV were then used for further evaluation.\nThe inhibition of the increase in the tumour volume (tumour volume of the test group/control group, T/C, in per cent) was the final measured value.\nThe administration of the compounds was carried out intraperitoneally (i.p.) on days 1, 2 and 3 after randomization."}, "[6]": {"conditions": "6.25 mg/kg/day (MTD) i.p. days 1-3"}}, "note": "Several values for one entry are separate records, joined by “and”; a condition that tells them apart may be missing. Equal values may be shown once.", "data": [{"compound": "CC[C@@]1(OC(=O)[C@@H](NC(=O)[C@H](CCCCN)NC(=S)Nc2ccc(O)cc2)C(C)C)C(=O)OCc2c1cc1n(c2=O)Cc2cc3ccccc3nc2-1.Cl", "note": "[Example 4.4), 20-O-[N^α-(4-Hydroxy-phenylamino-thiocarbonyl)-lysyl-valyl]-camptothecin, hydrochloride]", "values": [{"measurement": "IC50", "setting": "[1]", "result": 300, "unit": "nM"}, {"measurement": "IC50", "setting": "[2]", "result": 200, "unit": "nM"}, {"measurement": "IC50", "setting": "[3]", "result": 600, "unit": "nM"}, {"measurement": "IC50, inhibition of the CSF-induced proliferation of mouse bone marrow stem cells", "setting": "[4]", "result": 0.01, "unit": "µg/mL"}, {"measurement": "Relative body weight on day 21", "setting": "[5]; 3.125 mg/kg/day i.p. days 1-3", "result": "105.8 % of day 0"}, {"measurement": "Relative tumour volume on day 21", "setting": "[5]; 3.125 mg/kg/day i.p. days 1-3", "result": "69.5 % of day 0"}, {"measurement": "Survival time", "setting": "[5]; 3.125 mg/kg/day i.p. days 1-3", "result": ">43 >43 days"}, {"measurement": "Relative body weight on day 21", "setting": "[5]; [6]", "result": "113.0 % of day 0"}, {"measurement": "Relative tumour volume on day 21", "setting": "[5]; [6]", "result": "0.2 % of day 0"}, {"measurement": "Survival time", "setting": "[5]; 6.25 mg/kg/day (MTD) i.p. days 1-3, hydrochloride", "result": "7 days and > 43 days and >43 >43 days"}, {"measurement": "Maximum tolerable dose (MTD)", "setting": "[5]; i.p. on days 1, 2 and 3, nude mice", "result": 6.25, "unit": "mg/kg/day"}, {"measurement": "Therapeutic efficacy against LXFL 529 xenograft (in words)", "setting": "[5]; therapy at the MTD and at half the MTD", "result": "tumour remission"}]}]}
